Laboratory results from ChEMBL document CHEMBL5625223 (Eur J Med Chem, 2023).

What was measured:
[1] = molecular target: T1, 5-hydroxytryptamine receptor 2B (Homo sapiens, UniProt P41595); test: Binding affinity to 5HT2B receptor (unknown origin) assessed as inhibition constant
[2] = molecular target: T2, 5-hydroxytryptamine receptor 2C (Homo sapiens, UniProt P28335); test: Binding affinity to 5HT2C receptor (unknown origin) assessed as inhibition constant
T2 sequence (P28335 whole entry): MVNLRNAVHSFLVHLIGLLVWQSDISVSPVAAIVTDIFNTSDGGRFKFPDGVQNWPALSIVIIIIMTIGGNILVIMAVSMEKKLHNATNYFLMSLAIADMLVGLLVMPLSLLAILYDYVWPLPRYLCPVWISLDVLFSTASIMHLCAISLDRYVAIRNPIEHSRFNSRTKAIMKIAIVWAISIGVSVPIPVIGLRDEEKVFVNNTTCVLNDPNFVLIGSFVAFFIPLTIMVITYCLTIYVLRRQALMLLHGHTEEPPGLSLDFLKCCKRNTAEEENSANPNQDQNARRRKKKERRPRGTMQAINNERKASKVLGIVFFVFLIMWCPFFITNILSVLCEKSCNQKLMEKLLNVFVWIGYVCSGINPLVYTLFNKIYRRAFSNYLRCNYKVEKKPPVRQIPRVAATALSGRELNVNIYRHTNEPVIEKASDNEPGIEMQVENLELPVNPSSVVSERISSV

[3] = molecular target: T3, 5-hydroxytryptamine receptor 2A (Homo sapiens, UniProt P28223); test: Binding affinity to 5HT2A receptor (unknown origin) at 10 uM relative to control
[4] = molecular target: T4, Adenosine receptor A1 (Homo sapiens) (UniProt P30542); test: Binding affinity to A1AR (unknown origin) at 10 uM relative to control; conditions: filed as agonist
T4 sequence (whole entry): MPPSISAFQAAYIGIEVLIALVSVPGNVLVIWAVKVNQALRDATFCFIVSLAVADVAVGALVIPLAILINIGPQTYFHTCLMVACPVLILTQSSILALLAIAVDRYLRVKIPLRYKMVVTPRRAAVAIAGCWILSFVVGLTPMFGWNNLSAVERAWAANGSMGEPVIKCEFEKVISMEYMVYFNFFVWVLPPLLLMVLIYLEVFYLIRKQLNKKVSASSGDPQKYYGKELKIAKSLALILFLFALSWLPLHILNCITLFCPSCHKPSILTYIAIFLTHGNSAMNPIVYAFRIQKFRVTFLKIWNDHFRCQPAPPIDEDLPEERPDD

Mu-type opioid receptor = Mu-type opioid receptor (Homo sapiens, UniProt P35372); test: Binding affinity to MOR (unknown origin) assessed as inhibition constant
[5] = molecular target: T5, Adenosine receptor A3 (Homo sapiens) (UniProt P0DMS8); test: Displacement of […] from human A3AR expressed in HEK cells at 10 uM relative to control; type: cell-based
T5 sequence (whole entry): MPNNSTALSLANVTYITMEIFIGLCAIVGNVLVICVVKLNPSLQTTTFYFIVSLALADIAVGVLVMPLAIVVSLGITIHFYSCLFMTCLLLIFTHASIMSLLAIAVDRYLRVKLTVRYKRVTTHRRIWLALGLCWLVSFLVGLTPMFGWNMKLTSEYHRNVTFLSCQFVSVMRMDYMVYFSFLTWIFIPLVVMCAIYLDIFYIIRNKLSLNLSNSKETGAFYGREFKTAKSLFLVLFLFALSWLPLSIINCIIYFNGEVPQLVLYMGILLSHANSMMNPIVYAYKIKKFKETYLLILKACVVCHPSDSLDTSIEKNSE

[6] = molecular target: T3, 5-hydroxytryptamine receptor 2A; test: Displacement of [3H]ketanserin from human 5-HT2A receptor expressed in HEK293 cells at 10 uM incubated for 1 hr relative to control; type: cell-based
[7] = molecular target: Adenosine receptor A2a (Homo sapiens) (UniProt P29274); test: Displacement of […] from human A2AR expressed in HEK cells at 10 uM relative to control; type: cell-based
[8] = molecular target: T1, 5-hydroxytryptamine receptor 2B; test: Displacement of [3H]-LSD from human 5-HT2B receptor expressed in HEK cells assessed as inhibition constant incubated for 1 hr; type: cell-based
[9] = molecular target: T6, 5-hydroxytryptamine receptor 2C (Homo sapiens) (UniProt P28335); test: Displacement of [3H]-Mesulergine from human 5-HT2C expressed in Flp-In-T-REx-293 cells at 10 uM incubated for 1 hr relative to control; type: cell-based
T6 sequence (whole entry): T2 sequence (P28335 whole entry)

Adenosine receptor A1 = molecular target: T7, Adenosine receptor A1 (Homo sapiens, UniProt P30542); test: Displacement of […] from human A1AR expressed in Flp-In-T-REx-293 cells assessed as inhibition constant; type: cell-based
T7 sequence (P30542 whole entry): T4 sequence (whole entry)

Adenosine receptor A3 = molecular target: T8, Adenosine receptor A3 (Homo sapiens, UniProt P0DMS8); test: Displacement of […] from human A3AR expressed in HEK cells assessed as inhibition constant; type: cell-based
T8 sequence (P0DMS8 whole entry): T5 sequence (whole entry)

Translocator protein = Translocator protein (Homo sapiens, UniProt P30536); test: Binding affinity to TSPO (unknown origin) assessed as inhibition constant
D(4) dopamine receptor = molecular target: T9, D(4) dopamine receptor (Homo sapiens, UniProt P21917); test: Binding affinity to dopamine D4 receptor (unknown origin) assessed as inhibition constant
T9 sequence (P21917 whole entry): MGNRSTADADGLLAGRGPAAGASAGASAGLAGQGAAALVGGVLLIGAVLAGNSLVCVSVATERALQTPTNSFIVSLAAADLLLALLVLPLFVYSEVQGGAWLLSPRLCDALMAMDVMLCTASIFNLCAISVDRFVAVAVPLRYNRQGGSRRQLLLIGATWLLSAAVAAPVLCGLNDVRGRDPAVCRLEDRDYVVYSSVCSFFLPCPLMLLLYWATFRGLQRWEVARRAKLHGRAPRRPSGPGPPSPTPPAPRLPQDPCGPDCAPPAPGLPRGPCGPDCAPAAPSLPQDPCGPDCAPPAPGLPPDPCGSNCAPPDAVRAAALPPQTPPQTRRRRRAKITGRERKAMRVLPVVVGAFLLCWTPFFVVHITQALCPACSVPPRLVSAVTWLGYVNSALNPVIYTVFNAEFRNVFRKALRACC

[10] = molecular target: 5-hydroxytryptamine receptor 1D (Homo sapiens, UniProt P28221); test: Binding affinity to 5HT1D receptor (unknown origin) assessed as inhibition constant
[11] = molecular target: Beta-3 adrenergic receptor (Homo sapiens, UniProt P13945); test: Binding affinity to beta3 adrenergic receptor (unknown origin) assessed as inhibition constant
[12] = molecular target: T10, Alpha-2C adrenergic receptor (Homo sapiens, UniProt P18825); test: Binding affinity to alpha2C receptor (unknown origin) assessed as inhibition constant
T10 sequence (P18825 whole entry): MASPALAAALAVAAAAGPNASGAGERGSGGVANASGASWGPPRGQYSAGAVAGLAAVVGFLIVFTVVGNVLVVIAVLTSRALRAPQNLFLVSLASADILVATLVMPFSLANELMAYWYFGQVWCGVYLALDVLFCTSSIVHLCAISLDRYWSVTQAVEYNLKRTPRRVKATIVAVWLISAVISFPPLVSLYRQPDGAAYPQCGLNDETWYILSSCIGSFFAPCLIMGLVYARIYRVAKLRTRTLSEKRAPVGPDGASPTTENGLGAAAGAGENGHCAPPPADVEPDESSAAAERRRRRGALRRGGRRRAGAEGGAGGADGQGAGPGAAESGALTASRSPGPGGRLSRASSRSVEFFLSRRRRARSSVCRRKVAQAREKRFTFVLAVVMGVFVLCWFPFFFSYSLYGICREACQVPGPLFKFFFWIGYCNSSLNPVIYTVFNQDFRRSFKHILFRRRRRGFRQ

[13] = molecular target: T2, 5-hydroxytryptamine receptor 2C; test: Displacement of [3H]-Mesulergine from human 5-HT2C expressed in Flp-In-T-REx-293 cells assessed as inhibition constant incubated for 1 hr; type: cell-based; conditions: read-out: Ki
[14] = molecular target: Sodium-dependent dopamine transporter (Homo sapiens, UniProt Q01959); test: Binding affinity to DAT (unknown origin) assessed as inhibition constant
Chain of Sodium-dependent dopamine transporter (Q01959 whole entry): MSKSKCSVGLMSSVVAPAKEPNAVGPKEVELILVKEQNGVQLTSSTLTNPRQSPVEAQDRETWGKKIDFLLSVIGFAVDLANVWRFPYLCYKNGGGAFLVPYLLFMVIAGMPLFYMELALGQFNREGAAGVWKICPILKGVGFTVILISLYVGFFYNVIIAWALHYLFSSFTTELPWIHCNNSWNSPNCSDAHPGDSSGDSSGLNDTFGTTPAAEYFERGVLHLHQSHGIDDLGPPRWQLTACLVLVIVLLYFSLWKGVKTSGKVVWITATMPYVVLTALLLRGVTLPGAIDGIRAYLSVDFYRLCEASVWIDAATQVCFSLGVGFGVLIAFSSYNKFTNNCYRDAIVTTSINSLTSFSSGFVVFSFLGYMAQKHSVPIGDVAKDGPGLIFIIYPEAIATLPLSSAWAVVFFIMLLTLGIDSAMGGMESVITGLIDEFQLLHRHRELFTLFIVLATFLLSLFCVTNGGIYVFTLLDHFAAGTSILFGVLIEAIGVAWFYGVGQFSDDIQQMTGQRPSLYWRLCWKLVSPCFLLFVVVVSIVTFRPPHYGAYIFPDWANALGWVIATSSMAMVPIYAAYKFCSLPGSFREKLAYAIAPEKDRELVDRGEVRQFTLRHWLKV

Chain of Adenosine receptor A2a (Homo sapiens) (P29274 whole entry): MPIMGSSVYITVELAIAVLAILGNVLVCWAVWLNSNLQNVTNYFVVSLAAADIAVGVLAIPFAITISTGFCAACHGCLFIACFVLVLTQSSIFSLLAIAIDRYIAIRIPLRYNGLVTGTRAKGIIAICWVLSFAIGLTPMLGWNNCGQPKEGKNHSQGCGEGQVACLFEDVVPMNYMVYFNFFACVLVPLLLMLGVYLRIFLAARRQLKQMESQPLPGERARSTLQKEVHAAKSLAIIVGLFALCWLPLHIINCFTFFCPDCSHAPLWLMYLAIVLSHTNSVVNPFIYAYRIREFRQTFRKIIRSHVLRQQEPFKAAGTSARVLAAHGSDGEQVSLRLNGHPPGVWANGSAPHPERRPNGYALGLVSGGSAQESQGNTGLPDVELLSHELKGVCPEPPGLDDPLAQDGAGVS
T3 sequence (P28223 whole entry): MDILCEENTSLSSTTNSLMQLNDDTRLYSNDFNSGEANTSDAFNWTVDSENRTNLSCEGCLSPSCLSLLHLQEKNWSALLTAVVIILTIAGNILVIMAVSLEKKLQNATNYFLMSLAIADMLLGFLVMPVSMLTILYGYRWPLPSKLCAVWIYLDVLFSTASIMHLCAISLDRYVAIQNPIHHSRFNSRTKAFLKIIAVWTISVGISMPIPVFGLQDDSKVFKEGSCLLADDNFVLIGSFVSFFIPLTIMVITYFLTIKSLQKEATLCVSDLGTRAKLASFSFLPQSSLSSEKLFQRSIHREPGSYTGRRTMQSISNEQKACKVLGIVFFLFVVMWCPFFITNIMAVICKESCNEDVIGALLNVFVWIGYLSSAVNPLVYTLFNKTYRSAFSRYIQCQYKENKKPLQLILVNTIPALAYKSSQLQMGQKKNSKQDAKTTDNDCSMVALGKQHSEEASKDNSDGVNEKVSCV
T1 sequence (P41595 whole entry): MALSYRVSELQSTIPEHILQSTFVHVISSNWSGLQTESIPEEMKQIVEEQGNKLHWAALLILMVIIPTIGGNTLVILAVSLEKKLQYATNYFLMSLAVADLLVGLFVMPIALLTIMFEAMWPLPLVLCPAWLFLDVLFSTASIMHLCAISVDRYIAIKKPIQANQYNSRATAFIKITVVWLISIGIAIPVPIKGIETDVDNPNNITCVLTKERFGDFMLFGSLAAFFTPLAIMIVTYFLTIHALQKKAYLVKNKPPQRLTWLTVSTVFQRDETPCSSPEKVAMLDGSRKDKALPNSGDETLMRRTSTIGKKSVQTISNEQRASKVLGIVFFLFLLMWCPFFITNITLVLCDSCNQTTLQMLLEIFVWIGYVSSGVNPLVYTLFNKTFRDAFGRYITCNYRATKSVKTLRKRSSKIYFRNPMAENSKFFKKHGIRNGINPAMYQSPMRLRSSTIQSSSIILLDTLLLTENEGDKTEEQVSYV
Chain of Beta-3 adrenergic receptor (P13945 whole entry): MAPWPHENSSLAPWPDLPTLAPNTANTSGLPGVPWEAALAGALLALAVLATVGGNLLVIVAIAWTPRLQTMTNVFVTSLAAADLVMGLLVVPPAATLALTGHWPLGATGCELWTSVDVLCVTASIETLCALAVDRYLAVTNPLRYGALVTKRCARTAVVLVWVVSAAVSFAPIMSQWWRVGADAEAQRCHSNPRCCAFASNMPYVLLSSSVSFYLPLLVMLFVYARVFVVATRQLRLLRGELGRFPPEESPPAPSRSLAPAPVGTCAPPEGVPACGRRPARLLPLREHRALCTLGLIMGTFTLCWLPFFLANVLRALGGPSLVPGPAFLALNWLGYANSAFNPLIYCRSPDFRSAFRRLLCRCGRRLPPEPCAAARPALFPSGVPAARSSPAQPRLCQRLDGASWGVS
Chain of Translocator protein (P30536 whole entry): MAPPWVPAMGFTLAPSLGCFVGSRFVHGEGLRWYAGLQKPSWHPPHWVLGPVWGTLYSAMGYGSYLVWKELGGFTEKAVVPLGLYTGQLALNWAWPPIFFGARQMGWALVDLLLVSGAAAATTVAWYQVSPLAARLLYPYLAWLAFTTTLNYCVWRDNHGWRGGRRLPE
Chain of Mu-type opioid receptor (P35372 whole entry): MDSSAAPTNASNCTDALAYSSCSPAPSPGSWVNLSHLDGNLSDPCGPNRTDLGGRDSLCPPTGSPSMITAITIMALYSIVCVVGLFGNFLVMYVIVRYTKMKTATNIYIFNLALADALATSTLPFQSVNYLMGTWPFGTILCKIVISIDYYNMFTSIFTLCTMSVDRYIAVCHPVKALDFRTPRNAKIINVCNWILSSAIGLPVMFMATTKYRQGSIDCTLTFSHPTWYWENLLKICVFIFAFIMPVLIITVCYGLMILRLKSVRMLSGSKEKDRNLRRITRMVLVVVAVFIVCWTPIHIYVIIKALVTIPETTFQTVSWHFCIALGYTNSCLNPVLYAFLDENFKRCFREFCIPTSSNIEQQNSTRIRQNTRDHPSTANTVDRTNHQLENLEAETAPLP
Chain of 5-hydroxytryptamine receptor 1D (P28221 whole entry): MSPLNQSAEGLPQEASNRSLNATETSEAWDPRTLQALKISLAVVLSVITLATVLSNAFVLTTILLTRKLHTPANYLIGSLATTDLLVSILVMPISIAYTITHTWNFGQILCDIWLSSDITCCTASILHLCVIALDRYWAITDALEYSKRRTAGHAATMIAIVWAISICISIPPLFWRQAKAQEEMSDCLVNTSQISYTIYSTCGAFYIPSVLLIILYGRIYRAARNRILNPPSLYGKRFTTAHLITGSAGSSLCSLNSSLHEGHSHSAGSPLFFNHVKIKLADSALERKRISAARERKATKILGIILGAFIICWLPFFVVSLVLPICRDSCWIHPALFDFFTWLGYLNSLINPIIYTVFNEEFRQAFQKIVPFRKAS

SMILES | Activity [3] | Activity [6] | Activity [7] | Ki [8] | Ki (Adenosine receptor A1) | Ki (Adenosine receptor A3) | Ki [11] | Ki [13] | further results
O[C@H]1[C@H](n2cnc3c(NC(C4CCC4)C4CCC4)nc(Cl)nc32)[C@H]2C[C@@]2(CSc2ccccc2F)[C@H]1O | 21% | – | – | – | – | – | – | – | Ki [1]: 0.601 µM; Ki [2]: 1.25 µM; Activity [4]: 45%
O[C@H]1[C@H](n2cnc3c(NC(C4CCCC4)C4CCCC4)nc(Cl)nc32)[C@H]2C[C@@]2(CSc2ccccc2F)[C@H]1O | – | 36% | -10% | 0.64 µM | – | – | – | – | Ki (Mu-type opioid receptor): 4.9 µM; Activity [5]: 1%; Activity [9]: 37%
OC[C@@]12C[C@@H]1[C@@H](n1cnc3c(NC(C4CCC4)C4CCC4)nc(I)nc31)[C@H](O)[C@@H]2O | 16% | – | 37% | – | 0.204 µM | 34.3 µM | – | – | Ki (Translocator protein): 2.1 µM
CCSC[C@@]12C[C@@H]1[C@@H](n1cnc3c(NC(C4CCCC4)C4CCCC4)nc(Cl)nc31)[C@H](O)[C@@H]2O | – | 38% | -48% | – | – | 6.28 µM | 1.5 µM | – | Ki (D(4) dopamine receptor): 3.6 µM; Ki [10]: 5.2 µM; Ki [12]: 2.1 µM; Activity ([9]; filed as antagonist): 47%
COc1ccc(SC[C@@]23C[C@@H]2[C@@H](n2cnc4c(NC(C5CCCC5)C5CCCC5)nc(Cl)nc42)[C@H](O)[C@@H]3O)cc1OC | – | 25% | 19% | 0.256 µM | – | – | 2.1 µM | 0.368 µM | Activity ([5]; filed as agonist): 78%
O[C@H]1[C@H](n2cnc3c(NC(C4CCCC4)C4CCCC4)nc(Cl)nc32)[C@H]2C[C@@]2(CF)[C@H]1O | – | 36% | 21% | – | 1.62 µM | 7.2 µM | – | 0.58 µM | Ki [14]: 7.9 µM
